Results: paper PMC4958397, “Synthesis, antibacterial and antiproliferative potential of some new 1-pyridinecarbonyl-4-substituted thiosemicarbazide derivatives” (Medicinal Chemistry Research, 2016)
Converted amounts (≈) assume the structure as drawn.

Assays:
Type in all cases: cell-based
[1] = test system: Lactobacillus acidophilus PCM 210; assay: Disk diffusion, zone of bacterial growth inhibition; conditions: Lactobacillus acidophilus, PCM210, 100 μg of compound, read-out: Zone of bacterial growth inhibition, L.a
Description: (§1) Panel reference strains of bacteria from the American Type Culture Collection or Polish Collection of Microorganisms, including aerobic Gram-positive bacteria: Staphylococcus aureus ATCC 25923 and Staphylococcus epidermidis ATCC 12228, and aerobic Gram-negative bacteria: Escherichia coli ATCC 25922 and Pseudomonas aeruginosa ATCC 9027, as well as microaerobic Gram-positive bacteria: Lactobacillus spp., Lactobacillus acidophilus PCM 2105, Streptococcus mutans PCM 2502 and Streptococcus sanguinis PCM 2335, were used. Microbial suspensions with an optical density of 0.5 McFarland standard at 1.5 × 10^8 CFU/mL (CFU: colony forming unit) were prepared in sterile 0.9 % NaCl. Mueller–Hinton (M–H) broth and M–H agar (Oxoid Ltd., England) for aerobic strains, and MRS Broth Lactobacillus, MRS Agar Lactobacillus (BioMaxima S.A., Poland), BHI Broth and BHI agar (BioMaxima S.A., Poland) for microaerobic strains were used in the microbial tests.
(§2) The preliminary antibacterial activity of the carbazide derivatives against human pathogenic Gram-positive, Gram-negative aerobic and microaerobic bacteria was evaluated by measuring the zones of inhibition in the disk diffusion method (Murray et al., [1995]). Each compound (100 µg) was placed on Petri plates with agar medium (previously inoculated with 0.5 McFarland standards with the tested bacterial strains). After 18 h of incubation at 37 °C (for aerobic strains) or 40 h at 35 °C (for microaerobic strains), zones of microbial growth produced around the tested substances were measured and recorded as the diameters of inhibition.

[2] = test system: Staphylococcus epidermidis ATCC 12228; assay: as above; conditions: Staphylococcus epidermidis, ATCC12228, 100 μg of compound, read-out: Zone of bacterial growth inhibition, S.e
Description: as §1, §2

[3] = test system: Streptococcus mutans PCM 2502; assay: as above; conditions: Streptococcus mutans, PCM2502, 100 μg of compound, read-out: Zone of bacterial growth inhibition, S.m
Description: as §1, §2

[4] = test system: Streptococcus sanguinis PCM 2335; assay: as above; conditions: Streptococcus sanguinis, PCM2335, 100 μg of compound, read-out: Zone of bacterial growth inhibition, S.s
Description: as §1, §2

Lactobacillus spp. = assay: as above; conditions: Lactobacillus, 100 μg of compound, read-out: Zone of bacterial growth inhibition, L.spp.
Description: as §1, §2

[5] = test system: Pseudomonas aeruginosa ATCC 9027; assay: as above; conditions: Pseudomonas aeruginosa, ATCC9027, 100 μg of compound, read-out: Zone of bacterial growth inhibition, P.a
Description: as §1, §2

[6] = test system: Staphylococcus aureus ATCC 25923; assay: as above; conditions: Staphylococcus aureus, ATCC25923, 100 μg of compound, read-out: Zone of bacterial growth inhibition, S.a
Description: as §1, §2

[7] = test system: Escherichia coli ATCC 25922; assay: as above; conditions: Escherichia coli, ATCC25922, 100 μg of compound, read-out: Zone of bacterial growth inhibition, E.c
Description: as §1, §2

[8] = test system: Lactobacillus acidophilus PCM 210; assay: Broth microdilution MIC; conditions: for MIC: Lactobacillus acidophilus, PCM210, NA means inactive, read-out: Minimum inhibitory concentration (MIC), L. acidophilus
[9] = test system: Staphylococcus epidermidis ATCC 12228; assay: Broth microdilution MIC; conditions: Staphylococcus epidermidis, ATCC12228, NA means inactive, read-out: Minimum inhibitory concentration (MIC), S. epidermidis
Description: as §1
(§3) A broth microdilution method was used to evaluate the minimum inhibition concentration (MIC) according to the CLSI document (CLSI performance standards for antimicrobial susceptibility testing, 2008, Eighteenth International Supplement, CLSI document M7-MIC, Clinical Laboratory Standards Institute, Wayne) with some modifications. […] A serial doubling dilution of the compounds was prepared in 96-well plates (200 μL per well). A suitable medium (M-H Broth, MRS Broth Lactobacillus, BHI Broth) was used as a diluent. The final concentrations of derivatives were 1000–0.015 μg/mL. Finally, 2 μL of inoculum of the tested bacterial strain (1.5 × 10^8 CFU/mL) was added to each well. The tests were performed either at 36 °C for 18 h (aerobic strains) or at 40 h (microaerobic strains). After incubation, the panel was digitally analyzed at 600 nm using the microplate reader Bio Tech Synergy (USA) with a dedicated software system. The growth intensity in each well was compared with the negative and positive controls.

[10] = test system: Streptococcus mutans PCM 2502; assay: Broth microdilution MIC; conditions: Streptococcus mutans, PCM2502, NA means inactive, read-out: Minimum inhibitory concentration (MIC), S. mutans
Description: as §1, §3

[11] = test system: Streptococcus sanguinis PCM 2335; assay: Broth microdilution MIC; conditions: Streptococcus sanguinis, PCM2335, NA means inactive, read-out: Minimum inhibitory concentration (MIC), S. sanguinis
Description: as §1, §3

[12] = test system: Pseudomonas aeruginosa ATCC 9027; assay: Broth microdilution MIC; conditions: Pseudomonas aeruginosa, ATCC9027, NA means inactive, read-out: Minimum inhibitory concentration (MIC), P. aeruginosa
Description: as §1, §3

[13] = test system: Staphylococcus aureus ATCC 25923; assay: Broth microdilution MIC; conditions: Staphylococcus aureus, ATCC25923, NA means inactive, read-out: Minimum inhibitory concentration (MIC), S. aureus
Description: as §1, §3

[14] = test system: Escherichia coli ATCC 25922; assay: Broth microdilution MIC; conditions: NA means inactive; for MIC: Escherichia coli, ATCC25922, broth microdilution, read-out: Minimum inhibitory concentration (MIC), E. coli; for Minimum inhibitory concentration (MIC), E. coli: broth microdilution
Description: as §1, §3

MIC [8] [µg/mL] | MIC [9] [µg/mL] | MIC [10] [µg/mL] | MIC [11] [µg/mL] | MIC [12] [µg/mL] | MIC [13] [µg/mL] | MIC [14] [µg/mL] | Minimum inhibitory concentration (MIC), E. coli [14] [µg/mL] | Minimum inhibitory concentration (MIC), L. acidophilus ([8]; NA means inactive) | SMILES | zone of inhibition at 100 µg/disc [1] [mm] | zone of inhibition at 100 µg/disc [2] [mm] | zone of inhibition at 100 µg/disc [3] [mm] | zone of inhibition at 100 µg/disc [4] [mm] | zone of inhibition at 100 µg/disc (Lactobacillus spp.) [mm] | zone of inhibition at 100 µg/disc [5] [mm] | zone of inhibition at 100 µg/disc [6] [mm] | zone of inhibition at 100 µg/disc [7] [mm]
31.2 (≈ 91.6 µM) | 31.2 | 31.2 | 7.81 | 500 | 31.2 | 62 to 125 | 62.5 |  | O=C(NNC(=S)Nc1ccc(Cl)cc1Cl)c1ccccn1 [Compound 4, 4-(2,4-Dichlorophenyl)-1-(pyridin-2-yl)carbonylthiosemicarbazide] | 20 | 27 | 35 | 25 | 24 | 14 | 22 | 20
0.976 | 0.488 | 0.488 | 7.81 | 15.6 | 0.488 | 0.488 |  |  | [H]/N=C(\N/C(=N/[H])NCCCCCCNC(=N)NC(=N)Nc1ccc(Cl)cc1)Nc1ccc(Cl)cc1 [CLX, chlorhexidine digluconate, reference compound] | 24 | 23 | 26 | 29 | 24 | 16 | 23 | 15
31.2 | 31.2 | 62.5 | 31.2 | 125 | 31.2 | 15.6 |  |  | CCOc1ccc2nc3cc(N)ccc3c(N)c2c1 [Ethacridine lactate, ethacridine lactate, reference compound] | 15 | 8 | 24 | 24 | 10 | 4 | 10 | 12
> 1000 | 500 | 500 | 1000 | > 1000 | > 1000 | > 1000 |  |  | O=C(NNC(=S)Nc1ccc(Cl)cc1Cl)c1cccnc1 [Compound 7, 4-(2,4-Dichlorophenyl)-1-(pyridin-3-yl)carbonylthiosemicarbazide] | 5 | 10 | 24 | 10 | 7 | 0 | 0 | 9
> 1000 | 500 | 250 | 15.6 | > 1000 | 250 | 62 to 125 | 62.5 | did not limit the growth | CSc1ccc(NC(=S)NNC(=O)c2cccnc2)cc1 [Compound 6, 4-(4-Methylthiophenyl)-1-(pyridin-3-yl)carbonylthiosemicarbazide] | 0 | 9 | 11 | 19 | 0 | 0 | 10 | 9
62.5 (≈ 204 µM) | 31.2 | 250 | 250 | 1000 | 31.2 | 62 to 125 | 62.5 |  | O=C(NNC(=S)Nc1ccccc1Cl)c1ccccn1 [Compound 2, 4-(2-Chlorophenyl)-1-(pyridin-2-yl)carbonylthiosemicarbazide] | 16 | 25 | 24 | 0 | 24 | 4 | 17 | 20
